From patent US7649001B2
Where a chain is given by its changes, count along the chain named. Where a name gives a salt, the structure may show the parent alone.

Experiments:
[1] = system: Human prostate cancer cell strain LNCaP-FGC; assay: cells; format: cell-based; settings: 72 h, read-out: Promotion rate (%) on PSA production at 100 nM
[2] = target: T1, LNCaP type mutant androgen receptor (AR) (Homo sapiens, UniProt P10275, T878A); assay: AR-binding inhibition test (LNCaP type); settings: read-out: Inhibition rate (%) at 100 nM LNCaP type
T1 sequence (P10275 1-920 T878A): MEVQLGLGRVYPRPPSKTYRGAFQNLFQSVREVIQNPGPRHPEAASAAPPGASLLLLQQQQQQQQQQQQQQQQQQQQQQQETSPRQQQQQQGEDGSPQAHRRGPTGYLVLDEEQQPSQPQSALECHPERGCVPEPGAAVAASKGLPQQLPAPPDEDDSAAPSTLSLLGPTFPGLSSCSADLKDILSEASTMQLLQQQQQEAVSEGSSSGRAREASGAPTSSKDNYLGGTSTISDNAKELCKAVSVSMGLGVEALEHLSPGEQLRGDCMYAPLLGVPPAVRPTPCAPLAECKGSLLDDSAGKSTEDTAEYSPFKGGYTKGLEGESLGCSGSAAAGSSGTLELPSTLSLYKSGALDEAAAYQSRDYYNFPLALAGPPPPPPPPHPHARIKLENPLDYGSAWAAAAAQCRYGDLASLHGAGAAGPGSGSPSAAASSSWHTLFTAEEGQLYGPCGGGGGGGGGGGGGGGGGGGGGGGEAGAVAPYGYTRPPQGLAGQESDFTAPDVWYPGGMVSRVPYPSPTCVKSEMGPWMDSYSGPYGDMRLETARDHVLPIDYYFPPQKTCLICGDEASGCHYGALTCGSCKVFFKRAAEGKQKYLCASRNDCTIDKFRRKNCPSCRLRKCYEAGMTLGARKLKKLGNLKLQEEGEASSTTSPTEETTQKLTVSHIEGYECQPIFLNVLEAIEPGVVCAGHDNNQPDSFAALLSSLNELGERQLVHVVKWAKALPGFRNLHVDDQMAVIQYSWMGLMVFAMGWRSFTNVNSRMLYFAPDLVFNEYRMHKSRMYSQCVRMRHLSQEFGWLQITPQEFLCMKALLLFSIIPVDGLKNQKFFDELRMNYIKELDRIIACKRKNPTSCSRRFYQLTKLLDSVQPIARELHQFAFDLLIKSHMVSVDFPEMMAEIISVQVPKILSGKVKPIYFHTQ

[3] = target: T2, wild type androgen receptor (AR) (Homo sapiens, UniProt P10275); assay: AR-binding inhibition test (wild type); settings: read-out: Inhibition rate (%) at 100 nM Wild type
T2 sequence (P10275 1-920): T1 sequence (P10275 1-920 T878A) with A878T

Compound	melting point [°C]	activation at 0.1 µM [1] [%]	inhibition at 0.1 µM [2] [%]	inhibition at 0.1 µM [3] [%]
COC[C@H]1CCCN1c1ccc(C#N)c2ccccc12 (as salt: hydrochloride) [Compound 45, 4-[(2R)-2-(methoxymethyl)pyrrolidin-1-yl]-1-naphthonitrile hydrochloride]	88 to 89	–	–	–
C[C@H]1CCCN1c1ccc(C#N)c2ccccc12 [Compound 85, 4-[(2S)-2-methyl-1-pyrrolidinyl]-1-naphthonitrile]	–	92	99	95
N#Cc1ccc(N2CCC(CO)C2)c2ccccc12 (stereo not drawn) [Compound 50, 4-[3-(hydroxymethyl)pyrrolidin-1-yl]-1-naphthonitrile hydrochloride]	–	88	102	91
N#Cc1ccc(N2CCC(F)C2)c2ccsc12 (stereo not drawn) [Compound 100, 4-(3-fluoro-1-pyrrolidinyl)-1-benzothiophene-7-carbonitrile]	151 to 152	82	92	97
N#Cc1ccc(N2CCCCC2)c2ccccc12 [Compound 3, 4-(1-piperidinyl)-1-naphthonitrile]	–	90	97	97
C[C@H]1[C@@H](O)CCN1c1ccc(C#N)c2ccccc12 [Compound 116, 4-[(2S,3S)-3-hydroxy-2-methyl-1-pyrrolidinyl]-1-naphthonitrile]	–	84	94	99
C[C@H]1[C@@H](O)CCN1c1ccc(C#N)c2sccc12 [Compound 118, 4-[(2S,3S)-3-hydroxy-2-methyl-1-pyrrolidinyl]-1-benzothiophene-7-carbonitrile]	–	88	95	96
C[C@H]1[C@@H](CO)CCN1c1ccc(C#N)c2ccccc12 [Compound 107, 4-[(2S,3S)-3-(hydroxymethyl)-2-methyl-1-pyrrolidinyl]-1-naphthonitrile]	–	95	93	95
CC[C@@H]1CCCN1c1ccc(C#N)c2ccccc12 [Compound 84, 4-[(2R)-2-ethyl-1-pyrrolidinyl]-1-naphthonitrile]	–	–	93	88
N#Cc1ccc(N2CCC(CCO)C2)c2ccccc12 (stereo not drawn) [Compound 141, 4-[3-(2-hydroxyethyl)-1-pyrrolidinyl]-1-naphthonitrile]	–	87	101	96
C[C@H]1[C@@H](C(N)=O)CCN1c1ccc(C#N)c2ccccc12	204 to 206	–	–	–
CC1CCCN1c1ccc(C#N)c2sccc12 (stereo not drawn) [Compound 76, 4-(2-methyl-1-pyrrolidinyl)-1-benzothiophene-7-carbonitrile]	–	85	97	102
C[C@H]1[C@@H](C#N)CCN1c1ccc(C#N)c2ccccc12	143 to 145	–	–	–
C=C[C@@H]1CCCN1c1ccc(C#N)c2ccccc12 [Compound 82, 4-[(2S)-2-vinyl-1-pyrrolidinyl]-1-naphthonitrile]	–	–	94	85
N#Cc1ccc(N2CCCC2)c2ccccc12 [Compound 1, 4-(1-pyrrolidinyl)-1-naphthonitrile]	–	–	78	88
N#Cc1c(Br)cc(N2CCCCC2)c2ccccc12	179 to 180	–	–	–

Compound	melting point [°C]	activation at 0.1 µM [1] [%]	inhibition at 0.1 µM [2] [%]	inhibition at 0.1 µM [3] [%]
C[C@H]1[C@H](O)CCN1c1ccc(C#N)c2ccccc12 [Compound 113, 4-[(2S,3R)-3-hydroxy-2-methyl-1-pyrrolidinyl]-1-naphthonitrile]	–	88	98	97
C=C[C@H]1CCCN1c1ccc(C#N)c2ccccc12 [Compound 81, 4-[(2R)-2-vinyl-1-pyrrolidinyl]-1-naphthonitrile]	–	98	100	104
COC[C@H]1CCCN1c1ccc(C#N)c2ccccc12 [Compound 45, 4-[(2R)-2-(methoxymethyl)pyrrolidin-1-yl]-1-naphthonitrile hydrochloride]	–	–	110	105
N#Cc1ccc(N2CCC(F)C2)c2ccccc12 (stereo not drawn) [Compound 99, 4-(3-fluoro-1-pyrrolidinyl)-1-naphthonitrile]	–	83	92	98
CC1(CO)CCCN(c2ccc(C#N)c3ccccc23)C1 (stereo not drawn) [Compound 56, 4-[3-(hydroxymethyl)-3-methyl-1-piperidinyl]-1-naphthonitrile]	–	96	91	80
N#Cc1ccc(N2CCC(O)C2)c2ccccc12 (stereo not drawn) [Compound 18, 4-(3-hydroxy-1-pyrrolidinyl)-1-naphthonitrile]	138 to 139	–	79	96
CC[C@H]1CCCN1c1ccc(C#N)c2ccccc12 [Compound 83, 4-[(2S)-2-ethyl-1-pyrrolidinyl]-1-naphthonitrile]	–	95	102	95
N#Cc1ccc(N2CCCCC2)c2ccsc12 [Compound 73, 4-(1-piperidinyl)-1-benzothiophene-7-carbonitrile]	99 to 100	–	95	95
CO[C@@H]1C[C@H](C)N(c2ccc(C#N)c3ccccc23)C1	88 to 89	–	–	–
CC(C)[C@H]1CCCN1c1ccc(C#N)c2ccccc12 [Compound 144, 4-[(2R)-2-isopropyl-1-pyrrolidinyl]-1-naphthonitrile]	–	87	102	103
CC1CCCN1c1ccc(C#N)c2ccccc12 (stereo not drawn) [Compound 47, 4-(2-methylpyrrolidin-1-yl)-1-naphthonitrile hydrochloride]	–	88	116	116
CC1CCCN1c1ccc(C#N)c2occc12 (stereo not drawn) [Compound 95, 4-(2-methyl-1-pyrrolidinyl)-1-benzofuran-7-carbonitrile]	82 to 83	–	105	92
N#Cc1ccc(N2CCCCCC2)c2ccccc12 [Compound 10, 4-(1-azepaneyl)-1-naphthonitrile]	–	75	144	112
CO[C@@H]1CCN(c2ccc(C#N)c3ccccc23)[C@H]1C [Compound 139, 4-[(2S,3R)-3-methoxy-2-methyl-1-pyrrolidinyl]-1-naphthonitrile]	–	73	99	95
CN1C(=O)CCN1c1ccc(C#N)c2ccccc12	192 to 193	–	–	–
N#Cc1ccc(N2CCCC(CO)C2)c2ccccc12 (stereo not drawn) [Compound 19, 4-[3-(hydroxymethyl)-1-piperidinyl]-1-naphthonitrile]	–	70	91	75
